Molecules are shown by their SMILES. Where two headings read alike, the source gives them in different places.

Assay [1] concerns sensory panel. To be noted: chicken soup with 1 g monosodium glutamate in 500 mL; compound at 2 g/L; 12 panelists. The method, then: Chicken soups were prepared by dissolving 6 g chicken base powder (detailed recipe shown in Table 1) and 1 g monosodium glutamate in 500 mL hot water.
The sensory evaluation was carried out by 12 panelists, previously screened for their sensory abilities.

Assay [2] deals with sensory panel. To be noted: tomato soup; compound at 2 g/L.
Assay [3] concerns sensory panel. The assay is described as follows: Taste threshold concentration in model broth (sensory panel, triangle test). Format: in vivo, human. To be noted: versus β-alanyl-L-glycine. The procedure: The sensory tests were performed in a sensory panel room at 20-25° C. To avoid a retro-nasal aroma or taste impression, nose clips were used. The sensory panel consisted of 8 to 14 trained persons. The panel was trained to evaluate the taste of aqueous solutions (1 mL each) of the following standard taste compounds by using a triangle test: saccharose (50 mmol/L) and L-alanine (15 mmol/L), respectively, for sweet taste; lactic acid (20 mmol/L) for sour taste; NaCl (12 mmol/L) for salty taste; caffeine (1 mmol/L) and quinine hydrochloride (0.05 mmol/L), respectively, for bitter taste; sodium glutamate (8 mmol/L, pH 5.7) for umami taste; and tannin (0.05%) for astringency. The “white meaty” oral sensations was assessed in a model broth solution prepared from monosodium glutamate monohydrate (1.9 g/L), yeast extract (2.1 g/L), maltodextrin (6.375 g/L) and sodium chloride (2.9 g/L) in bottled water (pH 5.9).

Regarding `O=C(O)CNC(=O)CCNCC(=O)[C@@H](O)[C@H](O)[C@H](O)CO`, the “sensory difference described by panel” value in the assay with sensory panel [1] is “increased the spicy, savory and meaty flavours”; in the assay on sensory panel [2], “increased the savory, fatty and spicy notes”. Also, the “lowering of the taste threshold molar concentration by a factor” value in the assay with sensory panel [3] is on record as “about 4”.

These data come from patent US10787481B2, “Sugar-dipeptide conjugates as flavor molecules” (NESTEC S.A., priority 2015, dated 2020).
